Results from patent US7915293B2, “Ubiquitin ligase inhibitors” (Rigel Pharmaceuticals, Inc., priority 2003, dated 2011).

The compounds below were run against E3 (His-APC11/APC2-"APC") (Homo sapiens, UniProt Q9NYG5+Q9UJX6) (assay: Plate-based E3 ligase assay (APC FLAG), auto-ubiquitination). Details: 2 concentrations tested.
Assay type: biochemical
Set-up: key: “+” indicates that the compound exibits inhibitory activity; “−” indicates that low or no inhibitory activity was observed
Method: E3 (His-APC11/APC2-“APC”) auto-ubiquitination was measured as described in U.S. patent application Ser. No. 09/826,312 (Publication No. US-2002-0042083-A1), which is incorporated herein in its entirety. Details of the protocol are described below. Activity in the presence of the compound was determined relative to a parallel control in which only DMSO was added. Values of the IC50 were typically determined using 6 or 8 different concentrations of the compound, although as few as 2 concentrations may be used to approximate the IC50 value.
Nickel-coated 96-well plates (Pierce 15242) were blocked for 1 hour with 100 μl of blocking buffer at room temperature. The plates were washed 4 times with 225 μl of 1×PBS and 80 μl of the reaction buffer were added that contained 100 ng/well of Flag-ubiquitin. To this, 10 μl of the test compound diluted in DMSO were added. After the test compound was added, 10 μl of E1 (human), E2 (Ubch5c), and APC in Protein Buffer was added to obtain a final concentration of 5 ng/well of E1, 20 ng/well of E2 and 100 ng/well of APC. The plate were shaken for 10 minutes and incubated at room temperature for 1 hour. After incubation, the plates were washed 4 times with 225 μl of 1×PBS and 100 μl/well of Antibody Mix were added to each well. The plates were incubate at room temperature for another hour after which they were washed 4 times with 225 μl of 1×PBS and 100 μl/well of Lumino substrate were added to each well. The luminescence was measured by using a BMG luminescence microplate reader.
To prepare the Blocking Buffer (1 liter; 1% Casein in 1×PBS), 10 grams of Casein (Hammersten Grade Casein from Gallard-Schlesinger Inc. #440203) were placed into 1 liter of 1×PBS, stirred on a hot plate and kept between 50-60° C. for an hour. The buffer was allowed to cool to room temperature and then filtered using a Buchner Funnel (Buchner filter funnel 83 mm 30310-109) and Whatman filter paper (Whatman Grade No. 1 Filter paper 28450-070). It was stored at 4° C. until used.
The reaction buffer consisted of 62.5 mM Tris pH 7.6 (Trizma Base—Sigma T-8524), 3 mM MgCl2 (Magnesium Chloride—Sigma M-2393), 1 mM DTT (Sigma D-9779), 2.5 mM ATP (Roche Boehringer Mann Corp. 635-316), 100 ng/well of Flag-ubiquitin, 0.1% BSA (Sigma A-7906), and 0.05% Tween-20 (Sigma P-7949).
The Protein Buffer consisted of 20 mM Tris pH 7.6, 10% glycerol (Sigma G-5516) and 1 mM DTT.
The antibody mix consisted of 0.25% BSA (Sigma A-7906) in 1×PBS, 1/50,000 anti-Flag (Sigma F-3165), 1/100,000 of anti-Mouse IgG-HRP (Jackson Immunoresearch #115-035-146).
The substrate mix consisted of SuperSignal Substrate from Pierce (catalog number 37070ZZ) and was prepared by mixing 100 ml of the peroxide solution, 100 ml of the enhancer solution and 100 ml of Milli-Q® water.

E3 (His-APC11/APC2-"APC"), sequence (Q9NYG5 whole entry): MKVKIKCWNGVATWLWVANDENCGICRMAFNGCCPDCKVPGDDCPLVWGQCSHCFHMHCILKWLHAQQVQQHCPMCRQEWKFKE
E3 (His-APC11/APC2-"APC"), sequence (Q9UJX6 whole entry): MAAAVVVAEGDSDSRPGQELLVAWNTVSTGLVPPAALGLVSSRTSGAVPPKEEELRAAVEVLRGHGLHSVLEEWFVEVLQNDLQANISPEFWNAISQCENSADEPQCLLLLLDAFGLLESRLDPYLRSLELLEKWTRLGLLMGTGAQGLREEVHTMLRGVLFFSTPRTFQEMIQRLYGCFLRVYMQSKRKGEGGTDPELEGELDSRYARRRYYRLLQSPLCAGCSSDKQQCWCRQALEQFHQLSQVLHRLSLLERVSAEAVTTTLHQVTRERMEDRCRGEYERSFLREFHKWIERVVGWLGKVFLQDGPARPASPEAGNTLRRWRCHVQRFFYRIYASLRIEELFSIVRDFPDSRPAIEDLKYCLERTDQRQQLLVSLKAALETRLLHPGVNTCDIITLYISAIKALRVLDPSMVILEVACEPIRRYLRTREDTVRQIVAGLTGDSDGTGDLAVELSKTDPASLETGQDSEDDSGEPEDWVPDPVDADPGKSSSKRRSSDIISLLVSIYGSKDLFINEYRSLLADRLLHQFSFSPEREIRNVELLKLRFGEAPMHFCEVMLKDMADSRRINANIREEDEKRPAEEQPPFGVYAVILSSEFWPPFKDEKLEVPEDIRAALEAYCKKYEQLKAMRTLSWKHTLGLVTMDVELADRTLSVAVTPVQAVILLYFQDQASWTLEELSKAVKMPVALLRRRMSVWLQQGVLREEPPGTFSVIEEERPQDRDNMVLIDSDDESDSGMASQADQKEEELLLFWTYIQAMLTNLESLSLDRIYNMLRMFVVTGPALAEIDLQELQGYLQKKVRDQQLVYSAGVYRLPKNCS

SMILES	APC Flag (2 pt)
O=S(=O)(Nc1ccc(F)c(Cl)c1)c1ccc(Oc2ccc(F)cc2)cc1 [Example 189, N-(3-chloro-4-fluorophenyl)-4-(4-fluoro-phenoxy)benzenesulfonamide]	− (2 pt)

Same assay, conditions: 8 concentrations tested

SMILES	APC Flag 8 pt
NS(=O)(=O)c1cc(Cl)c(Oc2ccc([N+](=O)[O-])cc2Cl)c(Cl)c1 [Compound 124, 3,5-dichloro-4-(2-chloro-4-nitrophenoxy)benzenesulfonamide]	+
CC1CC(C)CN(S(=O)(=O)c2cc(Cl)c(Oc3ccc([N+](=O)[O-])cc3Cl)c(Cl)c2)C1 (stereo not shown) [Example 20, 1-{[3,5-dichloro-4-(2-chloro-4-nitrophenoxy)phenyl]sulfonyl}-3,5-dimethylpiperidine]	+
CC(=N)NS(=O)(=O)c1cc(Cl)c(Oc2ccc([N+](=O)[O-])cc2)c(Cl)c1 [Example 63, N-{[3,5-dichloro-4-(4-nitrophenoxy)phenyl]sulfonyl}ethanimidamide]	−
N=C(NS(=O)(=O)c1cc(Cl)c(Oc2ccc([N+](=O)[O-])cc2)c(Cl)c1)c1ccc(Cl)cc1 [Example 34, 4-chloro-N-{[3,5-dichloro4-(4-nitrophenoxy)phenyl]sulfonyl}benzenecarboximidamide]	−
O=[N+]([O-])c1cc(C(F)(F)F)cc([N+](=O)[O-])c1Oc1ccc(NS(=O)(=O)c2ccc(Cl)cc2)cc1Cl [Example 248, 4-chloro-N-{3-chloro-4-[2,6-dinitro-4-(tri-fluoromethyl)phenoxy]phenyl}benzene-sulfonamide]	−
COc1ccc(Cl)cc1NS(=O)(=O)c1cc(Cl)c(Oc2ccc([N+](=O)[O-])cc2Cl)c(Cl)c1 [Compound 164, 3,5-dichloro-N-(5-chloro-2-methoxyphenyl)-(2-chloro-4-nitrophenoxy)lbenzenesulfonamide]	+
Cc1cc(C)c(N(S(=O)(=O)c2cc(Cl)c(Oc3ccc([N+](=O)[O-])cc3Cl)c(Cl)c2)S(=O)(=O)c2cc(Cl)c(Oc3ccc([N+](=O)[O-])cc3Cl)c(Cl)c2)c(C)c1 [Example 142, 3,5-dichloro-4-(2-chloro-4-nitrophenoxy)-N-mesityl-N-(1,3-dichloro-2-(2-chloro-4-nitrophenoxy)-5-sulfonylbenzene)benzene-sulfonamide]	+
O=[N+]([O-])c1ccc(N(S(=O)(=O)c2cc(Cl)c(Oc3ccc([N+](=O)[O-])cc3Cl)c(Cl)c2)S(=O)(=O)c2cc(Cl)c(Oc3ccc([N+](=O)[O-])cc3Cl)c(Cl)c2)cc1 [Example 138, 3,5-dichloro-4-(2-chloro-4-nitrophenoxy)-N-(1,3-dichloro-2-(2-chloro-4-nitrophenoxy)-5-sulfonylbenzene)-N-(4-nitrophenyl) benzenesulfonamide]	+
Cc1ccc(S(=O)(=O)Nc2ccc(Oc3c([N+](=O)[O-])cc(C(F)(F)F)cc3[N+](=O)[O-])c(Cl)c2)cc1 [Example 247, N-{3-chloro-4-[2,6-dinitro-4-(trifluoro-methyl)phenoxy]phenyl}-4-methylbenzene-sulfonamide]	+
O=[N+]([O-])c1ccc(Oc2c(Cl)cc(S(=O)(=O)N3CCOCC3)cc2Cl)c(Cl)c1 [Example 15, 4-{[3,5-dichloro-4-(2-chloro-4-nitro-phenoxy)phenyl]sulfonyl}morpholine]	−
CC(C)Oc1ccc(NS(=O)(=O)c2cc(Cl)c(Oc3ccc([N+](=O)[O-])cc3Cl)c(Cl)c2)cc1 [Compound 134, 3,5-dichloro-4-(2-chloro-4-nitrophenoxy)-N-[4-isopropoxyphenyl]benzenesulfonamide]	+
O=[N+]([O-])c1ccc(Oc2c(Cl)cc(S(=O)(=O)NCc3ccc(Br)cc3)cc2Cl)c(Cl)c1 [Compound 128, N-(4-bromobenzyl)-3,5-dichloro-4-(2-chloro-4-nitrophenoxy)benzenesulfonamide]	−
CC1CCN(S(=O)(=O)c2cc(Cl)c(Oc3ccc([N+](=O)[O-])cc3Cl)c(Cl)c2)CC1 [Example 19, 1-{[3,5-dichloro-4-(2-chloro-4-nitrophenoxy)phenyl]sulfonyl}-4-methylpiperidine]	−

Next, values leading:

APC Flag 8 pt	SMILES
−	N=C(NS(=O)(=O)c1cc(Cl)c(Oc2ccc([N+](=O)[O-])cc2Cl)c(Cl)c1)c1ccccc1 [Example 212, N-{[3,5-dichloro-4-(2-chloro-4-nitro-phenoxy)phenyl]sulfonyl}benzene-carboximidamide]
+	N=C(Nc1ccc(Cl)cc1)NS(=O)(=O)c1cc(Cl)c(Oc2ccc([N+](=O)[O-])cc2Cl)c(Cl)c1 [Example 211, 3,5-dichloro-4-(2-chloro-4-nitrophenoxy)-N-[[(4-chlorophenyl)amino](imino)methyl] benzenesulfonamide]
+	N=C(Nc1nc2ccccc2[nH]1)NS(=O)(=O)c1cc(Cl)c(Oc2ccc([N+](=O)[O-])cc2Cl)c(Cl)c1 [Example 225, N-[(1H-benzimidazol-2-ylamino)(imino)methyl]-3,5-dichloro-4-(2-chloro-4-nitro-phenoxy)benzenesulfonamide]
−	N#Cc1c(Cl)cccc1Oc1ccc(S(=O)(=O)Nc2cccc(Br)c2)cc1 [Example 180, N-(3-bromophenyl)-4-(3-chloro-2-cyano-phenoxy)benzenesulfonamide]
+	COc1ccc(NS(=O)(=O)c2cc(Cl)c(Oc3ccc([N+](=O)[O-])cc3Cl)c(Cl)c2)c(OC)c1OC [Example 157, 3,5-dichloro-4-(2-chloro-4-nitrophenoxy)-N-(2,3,4-trimethoxyphenyl)benzenesulfonamide]
−	O=[N+]([O-])c1ccc(Oc2c(Cl)cc(S(=O)(=O)NC3CCNCC3)cc2Cl)c(Cl)c1 [Example 130, 3,5-dichloro-4-(2-chloro-4-nitrophenoxy)-N-piperidin-4-ylbenzenesulfonamide]
−	N#Cc1c(Cl)cccc1Oc1ccc(S(=O)(=O)Nc2ccc(F)c(Cl)c2)cc1 [Example 182, 4-(3-chloro-2-cyanophenoxy)-N-(3-chloro-4-fluorophenyl)benzenesulfonamide]
+	O=[N+]([O-])c1ccc(Oc2c(Cl)cc(S(=O)(=O)NCCc3ccc(Cl)cc3Cl)cc2Cl)c(Cl)c1 [Example 127, 3,5-dichloro-4-(2-chloro-4-nitrophenoxy)-N-[2-(2,4-dichlorophenyl)ethyl]benzene-sulfonamide]
−	Cc1c(Cl)cccc1NS(=O)(=O)c1ccc(Oc2cccc(Cl)c2C#N)cc1 [Example 181, 4-(3-chloro-2-cyanophenoxy)-N-(3-chloro-2-methylphenyl)benzenesulfonamide]
+	O=S(=O)(c1ccc(Oc2ccc(Cl)cc2Cl)cc1F)N1CCCCC1 [Example 119, 1-{[4-(2,4-dichlorophenoxy)-2-fluorophenyl]sulfonyl)piperidine]
−	N=C(N)NCCC[C@H](NS(=O)(=O)c1cc(Cl)c(Oc2ccc([N+](=O)[O-])cc2Cl)c(Cl)c1)C(N)=O [Example 141, N^2-{[3,5-dichloro-4-(2-chloro-4-nitrophenoxy)phenyl]sulfonyl}argininamide]
